Data from publication PMC6376136, “Impact of lipid binding on the tertiary structure and allergenic potential of Jug r 3, the non-specific lipid transfer protein from walnut” (Scientific Reports, 2019).

Target: T1, Jug r 3 (Juglans regia, UniProt C5H617)
T1 construct: mature protein, secreted from Pichia pastoris GS115 (pPICZalphaA), signal peptide removed; four extra N-terminal residues EAEF; monomer
T1 sequence (C5H617 27-119): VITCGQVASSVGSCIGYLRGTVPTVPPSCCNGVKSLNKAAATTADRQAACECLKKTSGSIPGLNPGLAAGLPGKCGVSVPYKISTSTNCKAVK
Assay: ANS fluorescence displacement
Format: binding
Conditions: 10 uM protein, 10 uM ANS, protein:ligand 1:10 (100 uM ligand), overnight at 4 °C

How did the “% reduction of ANS fluorescence at protein:ligand 1:10” value turn out when CCCCCCCC/C=C\CCCCCCCC(=O)O [OLE, oleate] was run?
Its value is 31%.
